Data as given in publication PMC6826779, “Bis-allylic Deuterated DHA Alleviates Oxidative Stress in Retinal Epithelial Cells” (Antioxidants, 2019).

Target: T1, 15-sLOX (Glycine max, UniProt P08170)
T1 sequence (P08170 1-839): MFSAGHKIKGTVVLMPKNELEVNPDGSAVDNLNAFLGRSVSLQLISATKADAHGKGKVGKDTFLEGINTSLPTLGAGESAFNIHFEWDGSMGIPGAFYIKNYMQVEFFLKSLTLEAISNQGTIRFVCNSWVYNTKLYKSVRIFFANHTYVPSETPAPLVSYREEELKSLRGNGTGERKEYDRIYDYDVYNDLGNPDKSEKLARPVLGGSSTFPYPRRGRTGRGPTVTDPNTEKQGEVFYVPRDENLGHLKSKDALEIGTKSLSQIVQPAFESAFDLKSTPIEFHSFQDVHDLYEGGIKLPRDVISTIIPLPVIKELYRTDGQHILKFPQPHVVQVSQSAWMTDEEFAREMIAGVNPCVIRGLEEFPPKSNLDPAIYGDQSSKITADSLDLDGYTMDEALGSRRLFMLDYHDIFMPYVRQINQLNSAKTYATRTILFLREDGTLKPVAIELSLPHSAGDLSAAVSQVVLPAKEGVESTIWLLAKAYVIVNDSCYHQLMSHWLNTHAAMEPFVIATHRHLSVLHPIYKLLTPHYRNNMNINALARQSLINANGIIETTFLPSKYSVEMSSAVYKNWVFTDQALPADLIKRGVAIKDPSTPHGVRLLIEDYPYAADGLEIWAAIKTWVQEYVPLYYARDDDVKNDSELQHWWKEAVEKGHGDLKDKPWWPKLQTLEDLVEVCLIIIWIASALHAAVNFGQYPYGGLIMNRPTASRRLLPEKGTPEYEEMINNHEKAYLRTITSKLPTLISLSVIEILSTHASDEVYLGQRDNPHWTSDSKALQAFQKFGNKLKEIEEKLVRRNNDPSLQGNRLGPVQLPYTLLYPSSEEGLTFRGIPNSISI
Assay: LC-MS/MS of 15s-LOX oxidized samples (product profile)
Type: biochemical, Glycine max (soybean)
Settings: 0.1 mM substrate, 30 min reaction, room temperature
Method: In order to gain insights on the nature of the produced metabolites, LC-MS/MS analysis of the reaction products were carried out. To this end, the respective DHA variants (0.1 mM) were incubated in a 2 mL eppendorf tube with 10 µL 15-sLOX (4 mg/mL) in sodium borate buffer (50 mM, pH 9) for 30 min at room temperature and the reaction quenched by the addition of cold MeOH (760 µL). The hydroperoxides were reduced with the addition of aq. SnCl2 (50 µL, 5 mg/mL) and subsequently the mixture was centrifuged (16,100 ×g for 5 min). Water (2 mL) was added to the supernatant, followed by the dropwise addition of glacial acetic acid (40 µL). The products were purified by SPE using SepPak 200 mg C18 cartridges (3CC), according to published protocols. The methyl formate eluates were evaporated to dryness, dissolved in MeOH (0.5 mL) and stored at −80 °C until analysis. The resulting solution was diluted 1000 times with MeOH for LC-MS/MS measurements. To 120 µL water, 72 µL of MeOH, 4 µL of the diluted solution and 4 µL of an internal standard (15-HETE-d8, Leukotriene LTB4-d4 and DHA-d5) was added. The samples were loaded in a SIL-30AC autosampler and the analytes separated on a Kinetex 1.7 µm C18 100Å, 50 × 2.1 mm LC column as described. The detection of DHA metabolites was performed in selected ion monitoring mode using several traces in order to take the eventual loss of a deuterium atom into account. The following traces were used: m/z 327.2, 343.2, 359.2 and 375.2 for DHA and its metabolites, m/z 327.2, 328.2, 329.2, 344.2, 345.2, 360.2, 361.2, 376.2, 377.2 for D2-DHA, m/z 331.2, 345.3, 346.2, 361.2, 362.3, 363.2, 377.2, 378.2 and 379.2 for D4-DHA and m/z 337.2, 352.2, 353.2, 367.2, 368.2, 369.2, 383.2, 384.2 and 385.2 for D10-DHA. Tandem mass spectra were recorded as product ion scans. Quantification of the metabolites was done by calculating the area ratio between the analyte and the internal standard (DHA-d5 for non-hydroxylated, 15-HETE-d8 for mono-hydroxylated and LTB4-d4 for di-hydroxylated derivatives) using Multiquant version 3.0.2.

[2H]C([2H])(C=CCC=CCC=CCC=CCC)C=CC([2H])([2H])C=CCCC(=O)O [D4-DHA, (6,6,9,9-D4)-DHA]
pre-dominant product of 15-sLOX oxidation (LC-MS): double oxygenation product 10S,17S-diHDHA

[2H]C([2H])(/C=C\C/C=C\C/C=C\C/C=C\C/C=C\CC)/C=C\CCC(=O)O [D2-DHA, (6,6-D2)-DHA]
pre-dominant product of 15-sLOX oxidation (LC-MS): double oxygenation product 10S,17S-diHDHA

CC/C=C\C/C=C\C/C=C\C/C=C\C/C=C\C/C=C\CCC(=O)O [Natural DHA, docosahexaenoic acid, reference compound]
pre-dominant product of 15-sLOX oxidation (LC-MS): double oxygenation product 10S,17S-diHDHA
